Tests used:
[1] = target: T1, recombinant human 17β-HSD1 (Homo sapiens, UniProt P14061); test: Recombinant 17β-HSD1 assay (HPLC, 3H-estrone conversion); format: biochemical; details: 30 nM estrone, 1 mM NADPH, 30 min RT, read-out: Inhibition of rec. 17β-HSD1; for inhibition at 0.1 µM: 100 nM compound; for inhibition at 1 µM: 0.5 h, 1 μm compound
T1 construct: made in house; host or cells: Sf9 insect cells (baculovirus, Bac to Bac Expression System)
T1 sequence (P14061 1-328): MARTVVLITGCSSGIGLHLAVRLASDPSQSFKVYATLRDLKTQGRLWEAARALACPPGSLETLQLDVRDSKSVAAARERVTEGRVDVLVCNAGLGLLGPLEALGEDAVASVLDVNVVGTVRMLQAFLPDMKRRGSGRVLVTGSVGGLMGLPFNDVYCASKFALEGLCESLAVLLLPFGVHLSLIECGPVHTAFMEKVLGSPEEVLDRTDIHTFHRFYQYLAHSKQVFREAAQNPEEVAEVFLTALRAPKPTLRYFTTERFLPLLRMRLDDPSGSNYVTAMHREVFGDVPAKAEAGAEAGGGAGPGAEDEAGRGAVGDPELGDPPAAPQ
Description: 17β-HSD1 or 17β-HSD2 purification: Recombinant 17β-HSD1 and 17β-HSD2 baculoviruses were generated by the “Bac to Bac Expression System” (Invitrogen). Recombinant 17β-HSD1 or 17β-HSD2 bacmids were transfected to Sf9 insect cells using “Cellfectin Reagent” (Invitrogen). 60 h later cells were harvested; the fractions including 17β-HSD1 or 17β-HSD2 were isolated as described by Puranen et al. (1994). Aliquots were stored frozen until determination of enzymatic activity.
Recombinant 17β-HSD1 assay: Recombinant protein homogenate (0.1 μg/ml) was incubated in 20 mM KH2PO4 pH 7.4 reaction buffer, including protease inhibitors (Complete Protease Inhibitor Cocktail tablet, Roche Diagnostics, 1697498), with 30 nM estrone (Sigma, E9750) as substrate, 800 000 cpm/ml ^3H-estrone (PerkinElmer, NET319001MC) as a tracer substrate, and 1 mM NADPH (Sigma, N1630) as a co-factor for 30 min at RT, in the presence of potential inhibitors at concentrations of 1 μM or 0.1 μM. Inhibitor stock solutions were prepared in DMSO. The enzyme reaction was stopped by addition of trichloroacetic acid (1% final concentration). Samples were centrifuged in a microtiter plate at 4000 rpm for 10 min. Supernatants were applied to reverse phase HPLC on a Waters Symmetry C18 column, equipped with a Waters Sentry Guard column. Isocratic HPLC runs were performed at RT at a flow rate of 1 ml/min of acetonitrile:water 48:52 as running solvent. Radioactivity was monitored in the eluate by a Packard Flow Scintillation Analyzer. Total radioactivity for estrone and estradiol were determined in each sample and percent inhibition of estradiol conversion by the respective inhibitor was calculated
For the calculation of % inhibition the following formula was used:
[formula] Percent inhibition was calculated as follows: % inhibition=100−% conversion

[2] = target: T2, recombinant human 17β-HSD2 (Homo sapiens, UniProt P37059); test: Recombinant 17β-HSD2 assay (HPLC, 3H-estradiol conversion); format: biochemical; details: 50 nM estradiol, 1 mM β-NAD, read-out: Inhibition of rec. 17β-HSD2; for inhibition at 0.1 µM: 100 nM compound; for inhibition at 1 µM: 1 μm compound
T2 construct: made in house; host or cells: Sf9 insect cells (baculovirus, Bac to Bac Expression System)
T2 sequence (P37059 1-387): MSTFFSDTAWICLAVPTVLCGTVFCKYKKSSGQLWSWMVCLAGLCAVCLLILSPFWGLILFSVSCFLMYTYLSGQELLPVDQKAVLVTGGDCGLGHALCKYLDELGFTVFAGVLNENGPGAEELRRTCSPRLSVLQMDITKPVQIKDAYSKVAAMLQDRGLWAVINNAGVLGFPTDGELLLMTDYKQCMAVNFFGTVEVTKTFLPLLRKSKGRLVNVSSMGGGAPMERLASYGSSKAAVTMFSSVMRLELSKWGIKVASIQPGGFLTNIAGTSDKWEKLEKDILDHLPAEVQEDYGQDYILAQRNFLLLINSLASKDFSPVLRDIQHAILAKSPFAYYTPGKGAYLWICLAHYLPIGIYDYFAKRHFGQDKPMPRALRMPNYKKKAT
Description: 17β-HSD1 or 17β-HSD2 purification: Recombinant 17β-HSD1 and 17β-HSD2 baculoviruses were generated by the “Bac to Bac Expression System” (Invitrogen). Recombinant 17β-HSD1 or 17β-HSD2 bacmids were transfected to Sf9 insect cells using “Cellfectin Reagent” (Invitrogen). 60 h later cells were harvested; the fractions including 17β-HSD1 or 17β-HSD2 were isolated as described by Puranen et al. (1994). Aliquots were stored frozen until determination of enzymatic activity. Recombinant 17β-HSD2 assay: Recombinant 17β-HSD2 assay was performed as described for 17β-HSD1 but with following modifications: 6 μg/ml of recombinant protein homogenate, 50 nM Estradiol (Sigma, E8875) as a substrate, 800 000 cpm/ml ^3H-estradiol (PerkinElmer, NET317) as a tracer substrate and 1 mM β-NAD (Sigma N7004) as a co-factor were used. Total radioactivity for estrone and estradiol were determined in each sample and percent inhibition of estrone conversion by the respective inhibitor was calculated. For the calculation of % inhibition the following formula was used: [formula] Percent inhibition was calculated as follows: % inhibition=100−% conversion

| Compound | inhibition at 0.1 µM [1] [%] | inhibition at 1 µM [1] [%] | inhibition at 0.1 µM [2] [%] | inhibition at 1 µM [2] [%] |
| --- | --- | --- | --- | --- |
| C[C@]12CC[C@@H]3c4ccc(B(O)O)cc4CC[C@H]3[C@@H]1[C@H](CCC(=O)NCc1ccc3c(c1)OCO3)CC2=O [Compound 34, [15beta-{3-[(1,3-benzodioxol-5-ylmethyl)amino]-3-oxopropyl}-17-oxoestra-1(10),2,4-trien-3-yl]boronic acid] | 47 | 65 | 3.2 | 0.4 |
| C[C@]12CC[C@@H]3c4ccc(B(O)O)cc4CC[C@H]3[C@@H]1[C@H](CCC(=O)N1CCCCC1)CC2=O [Compound 35, [17-oxo-15beta-(3-oxo-3-piperidin-1-ylpropyl)estra-1(10),2,4-trien-3-yl]boronic acid] | 57 | 56 | 4 | 1.5 |
| CCN(CC)C(=O)CC[C@@H]1CC(=O)[C@@]2(C)CC[C@@H]3c4ccc(B(O)O)cc4CC[C@H]3[C@H]12 [Compound 39, [15beta-[3-(diethylamino)-3-oxopropyl]-17-oxoestra-1(10),2,4-trien-3-yl]boronic acid] | 74 | 88 | 1.8 | -0.6 |
| C[C@]12CC[C@@H]3c4ccc(B(O)O)cc4CC[C@H]3[C@@H]1[C@H](CCC(=O)Nc1ccc3c(c1)OCO3)CC2=O [Compound 45, [15beta-[3-(1,3-benzodioxol-5-ylamino)-3-oxopropyl]-17-oxoestra-1(10),2,4-trien-3-yl]boronic acid] | 49 | 66 | -1 | -1.1 |
| C[C@]12CC[C@@H]3c4ccc(B(O)O)cc4CC[C@H]3[C@@H]1[C@@H](CCCC(=O)N1CCOCC1)CC2(F)F [Compound 47, [17,17-difluoro-15alpha-(4-morpholin-4-yl-4-oxobutyl)estra-1(10),2,4-trien-3-yl]boronic acid] | 10 | 61 | 3.8 | 12.9 |
| C[C@]12CC[C@@H]3c4ccc(B(O)O)cc4CC[C@H]3[C@@H]1[C@@H](CCCC(=O)NCc1ccc3c(c1)OCO3)CC2(F)F [Compound 50, [15alpha-{4-[(1,3-benzodioxol-5-ylmethyl)amino]-4-oxobutyl}-17,17-difluoroestra-1(10),2,4-trien-3-yl]boronic acid] | 40 | 57 | 8 | 32.8 |
| COc1ccc(CCN(C)C(=O)CCC[C@H]2CC(F)(F)[C@@]3(C)CC[C@@H]4c5ccc(B(O)O)cc5CC[C@H]4[C@H]23)cc1OC [Compound 51, [15alpha-(4-{[2-(3,4-dimethoxyphenyl)ethyl](methyl)amino}-4-oxobutyl)-17,17-difluoroestra-1(10),2,4-trien-3-yl]boronic acid] | 37 | 62 | 2.8 | 7.8 |
| C[C@]12CC[C@@H]3c4ccc(B(O)O)cc4CC[C@H]3[C@@H]1[C@@H](CCCC(=O)NCc1ccccc1)CC2(F)F [Compound 54, [15alpha-[4-(benzylamino)-4-oxobutyl]-17,17-difluoroestra-1(10),2,4-trien-3-yl]boronic acid] | 41 | 58 | 7.6 | 25.2 |
| Cc1cnc(NC(=O)CC[C@@H]2CC(F)(F)[C@@]3(C)CC[C@@H]4c5ccc(B(O)O)cc5CC[C@H]4[C@H]23)s1 [Compound 58, [17,17-difluoro-15β-{3-[(5-methyl-1,3-thiazol-2-yl)amino]-3-oxopropyl}estra-1(10),2,4-trien-3-yl]boronic acid] | 23 | 55 | 6.8 | 11.6 |
| C[C@]12CC[C@@H]3c4ccc(B(O)O)cc4CC[C@H]3[C@@H]1[C@H](CCC(=O)NC1CCCCC1)CC2(F)F [Compound 59, [15beta-[3-(cyclohexylamino)-3-oxopropyl]-17,17-difluoroestra-1(10),2,4-trien-3-yl]boronic acid] | 69 | 84 | 0.6 | 15.2 |
| C[C@]12CC[C@@H]3c4ccc(B(O)O)cc4CC[C@H]3[C@@H]1[C@H](CCC(=O)NCc1cccnc1)CC2(F)F [Compound 62, [17,17-Difluoro-15beta-{3-oxo-3-[(pyridin-3-ylmethyl)amino]propyl}estra-1(10),2,4-trien-3-yl]boronic acid] | 36 | 56 | 6.2 | 8.3 |
| C[C@]12CC[C@@H]3c4ccc(B(O)O)cc4CC[C@H]3[C@@H]1[C@H](CCC(=O)NCc1ccc(F)cc1F)CC2(F)F [Compound 65, [15beta-{3-[(2,4-difluorobenzyl)amino]-3-oxopropyl}-17,17-difluoroestra-1(10),2,4-trien-3-yl]boronic acid] | 32 | 63 | 5.8 | 9.8 |
| C[C@]12CC[C@@H]3c4ccc(B(O)O)cc4CC[C@H]3[C@@H]1[C@H](CCC(=O)Nc1ccc3c(c1)OCO3)CC2(F)F [Compound 74, [15beta-[3-(1,3-benzodioxol-5-ylamino)-3-oxopropyl]-17,17-difluoroestra-1(10),2,4-trien-3-yl]boronic acid] | 55.6 | 71.4 | 4.9 | 5.5 |

From patent US8288367B2, “Substituted estratriene derivatives as 17BETA HSD inhibitors” (Solvay Pharmaceuticals GmBH, priority 2006, dated 2012)
